Experiments:
[1] = Luminescence lifetime measurements of Tb complexes for hydration number q; format: physicochemical; settings: for kH2O, absolute emission depopulation rate constant in H2O: pH 6.9 (0.1 M Tris/HCl), 298 K, ±10%; for inner-sphere coordinated (bound) water molecules, luminescent measurements: pH 6.9
Description: As previously mentioned, inner-sphere proton relaxivity is linearly proportional to the number of water molecules q that are directly coordinated to the Gd^3+ center. However, there is a trade-off between the q value and toxicity. […] It is noteworthy that there is no direct method of measuring the hydration number. The two commonly used indirect methods are as follows: (1) Lanthanide-induced shift (LIS) methods (see, Alpoim et al., J. Chem. Soc., Dalton Trans., 1992, 463). For paramagnetic Ln^3+ ions, the plot of the observed ^17O shift in Ln^3+ chelate solution versus the complex concentration gives a straight line, with the slope being proportional to its hydration number. (2) The lanthanide luminescence method. According to the Horrocks equation, the q value can be calculated by the emission rate constants for the depopulation of Tb^3+ or Eu^3+ complexes measured in H2O and D2O (see, Beeby at al., J. Chem. Soc., Perkin Trans. 2, 1999, 493). With this method, the q values of the Gd^3+ complexes in aqueous solution can be measured indirectly by their corresponding Tb^3+ or Eu^3+ complexes, because of the very similar coordination behavior between these three lanthanide ions.
Luminescence lifetime measurements were all obtained on a Perkin-Elmer LS 50B spectrofluorimeter with a 420 nm cut-off filter. The concentration of the complex was 1×10^−5˜1×10^−4 mol dm^−3. The emission of Tb^3+ or EU^3+ complexes was monitored at […]. Gd^3+ is a neighbor of Eu^3+ and Tb^3+ with a nearly identical ionic radius, and thus their chemistries are virtually identical. Therefore, the Horrocks equation for determining the number of coordinated water molecules q for Eu^3+ and Tb^3+ is still valid for the calculation of the q value of Gd^3+. In general, the number of coordinated water molecules q can be determined by the measurement of the luminescent lifetime of the complexes separately in H2O and D2O by application of the Horrocks equation.
qcorr=A(kH2O−kD2O−a)
where k is the constant for depopulation (reciprocal of luminescent lifetime), and A is a proportionality constant that signifies the sensitivity of the lanthanide ion to vibronic quenching by OH oscillators. a is correlation value for the consideration of the outer-sphere water molecules.

[2] = Variable-temperature 17O NMR transverse relaxation (water exchange); format: physicochemical; settings: for TM (derived from VT 17O NMR spectroscopy): 25° C., pH 6.9; for exchange lifetime τM of the inner-sphere coordinated water molecules: 298 K (25° C.), 2.12 T
Description: (§1) Measuring the relaxation rates of an abundant nuclear species as a function of the magnetic field over a wide range is called relaxometry. A relaxometry profile is a plot of the nuclear magnetic relaxation rate, usually 1/T1, as a function of the Larmor frequency or the magnetic field. This profile is also called a Nuclear Magnetic Resonance Dispersion (NMRD) profile. Compared with the NMRD profile, the prominent advantage of the ^17O NMR technique is that it allows the accurate determination of the water exchange rate 1/τM. This is a consequence of the oxygen nucleus being closer to the paramagnetic centre when bound in the inner-sphere, wherein the outer-sphere contributions to the relaxation rates are negligibly small. With the help of NMRD profiles, ^17O NMR measurements, and the Soloman-Bloemnergen-Morgan theory, several important parameters, such as τM, τR, τv, Δ^2 and τH, can be measured.
The variable-temperature ^17O NMR measurements were recorded on a JEOL EX-90 (2.1 T) spectrometer that was equipped with a 5 mm probe, by using a D2O external lock. The experimental settings were: spectral width of 10000 Hz, pulse width of 7 μs, acquisition time of 10 ms, 1000 scans, and no sample spinning. Solutions containing 2.6% of ^17O isotope were used. The observed transverse relaxation rates (R2obs^0) were calculated from the signal width at half height.

[3] = 1H NMRD profiles (water proton relaxivity); format: physicochemical; settings: for D: 25° C., pH 6.9, fits of NMRD profile and 17O NMR
Description: as §1
Water proton nuclear magnetic resonance dispersion NMRD profile is used to record the longitudinal water proton relaxation rates as a function of magnetic fields. The method is, in principle, sensitive to all of the parameters that influence relaxivity. […] The relaxometer worked under complete control with an absolute uncertainty in 1/T1 of ±2%. The NMRD profiles were measured using 1-2 mM solutions of the complexes.

[4] = 298 K; cited from earlier work
[5] = 20 MHz, 298 K; cited from earlier work
[6] = complex with Gd^3+; cited from earlier work
[7] = tested on: liver parenchyma; assay: In vivo MRI, hepatic intensity enhancement (T1-weighted); set-up: species or system male Sprague-Dawley (SD) rats; settings: rat
Description: (§2) To study the MRI contrast and biodistribution behavior of gadolinium complexes […] pendant crown ethers, experiments were performed using male Sprague-Dawley (SD) rats that weighted 150-180 g, and were housed at the Wuhan Institute of Physical and Mathematics of the Chinese Academy of Sciences (Wuhan, Hubei Province, China). All procedures conformed to the institutional guidelines for animal welfare. The rat was injected via the femoral vein with 1 mL saline solution of GdL1 in concentrations of 0.1, 0.033, and 0.02 mM/kg, which are the standard dosage, one third and one fifth of the standard dosage used in clinic currently. MR imaging was performed on a 4.7 T Bruker BIO-SPEC-47/30 MRI scanner with a custom spiral surface coil. The animal was scanned in the prone position in the MRI experiment. […] The total duration of the dynamic scanning lasted up to 400 min after the administration, with an image every 4 min. A water tube was placed in the field of view as a phantom reference. The intensity enhancement (IE) of the region of interest (RI) at time point t is expressed by IE=100% (RI(t)-RI(0))/RI(0) where RI(t) corresponds to the normalized signal intensity as measured at time point, t and RI(0) is the normalized signal intensity precontrast.

[8] = tested on: MIHA cells; assay: AO/EB staining, laser scanning confocal microscopy of cell morphology; format: cell-based; settings: 10 μM, up to 24 h of incubation
Description: MIHA cells in the absence (control) and presence of Gd-DOTA (10 μM), Gd-DO3A (10 μM), and GdL1 (10 μM) incubated at 37° C. and 5% CO2, 95% air in a humidified incubator for 1 h, 2 h, 8 h, and 24 h, respectively.
Based on cell morphology and cell membrane integrity, normal, necrotic, and apoptotic cells can be distinguished using laser confocal microscopy. FIG. 22 gives the cell morphology in the absence and presence of Gd-DOTA (10 μM), Gd-DO3A (10 μM), and GdL1 (10 μM) at various time intervals after the incubation. In the absence or presence of the Gd^3+ complexes, the nuclei of the living cells were stained as bright blue spots in the nucleus.

[9] = tested on: kidney cortex; assay: In vivo MRI, renal intensity enhancement (T1-weighted); set-up: species or system male Sprague-Dawley (SD) rats; settings: rat, 0.1 mmol/kg
Description: as §2

[10] = tested on: MIHA cells; assay: In vitro cytotoxicity, cell proliferation assay (MTT / XTT-based); settings: 1×10^−2 M, 24 h incubation
Description: To further investigate the potential ability of GdL1 as an NMRI contrast agent, its cytotoxicity was measured by MTT assay. The toxicity of GdL1 was determined from the dose-dependence of surviving cells after exposure to this Gd^3+ complex at different time intervals. For comparison, the cytotoxicities of Gd-DOTA and Gd-DO3A were measured under the same conditions.
To evaluate the toxicity of prepared Gd^3+ complexes, a colorimetric assay (XTT-based) for the non-radioactive quantification of cell proliferation was applied. In the cell proliferating process, the added tetrazolium salt XTT was cleaved to a formazan dye by metabolically active cells, and the quantification of cell growth was achieved by the variation of the absorbance at 492 nm. Seed MIHA Cells at a concentration of 5×10^3 cells/well (tissue culture grade, 96 wells, flat bottom) were added to Gd^3+ complexes (0.625-10 mM) in a humidified atmosphere (37° C., 6.5% CO2). Different concentrations of drugs were adjusted by performing serial dilution. The incubation period of the cell culture ranged from 1, 2, 8, and 24 hrs. XTT dye at a concentration of 5 mg/mL (sigma, St. Louis, Mo.) was added, and the plates were incubated for 12 h in a moist chamber at 37° C. The optical density was determined by eluting the dye with dimethyl sulfoxide, and the absorbance was measured at 570 nm. […]

| Structure (SMILES) | kH2O, absolute emission depopulation rate constant in H2O [1] [ms^−1] | TM (derived from VT 17O NMR spectroscopy) [2] [ns] | D [3] [cm^2s^−1] | exchange lifetime τM of the inner-sphere coordinated water molecules [2] [ns] | apoptotic or necrotic cells (cell morphology, AO/EB) [8] | also measured |
| --- | --- | --- | --- | --- | --- | --- |
| O=C([O-])CN1CCNCCN(CC(=O)[O-])CCN(CC(=O)[O-])CC1.[Tb+3] [Tb-DO3A, reference compound] | 0.88 |  |  |  |  |  |
| O=C([O-])CN1CCN(CC(=O)[O-])CCN(CC(=O)N2CCOCCOCCN(Cc3ccc4ccccc4n3)CCOCCOCC2)CCN(CC(=O)[O-])CC1.[Tb+3] [TbL3] | 0.50 |  |  |  |  | inner-sphere coordinated (bound) water molecules, luminescent measurements [1]: only one |
| O=C([O-])CN1CCN(CC(=O)[O-])CCN(CC(=O)[O-])CCN(CC(=O)[O-])CC1.[Tb+3] [Tb-DOTA, reference compound] | 0.48 |  |  |  |  |  |
| O=C([O-])CN(CCN(CC(=O)[O-])CC(=O)O)CCN(CC(=O)[O-])CC(=O)O.[Gd+3] [Gd-DTPA] |  | 250 | 2.24E−5 |  |  | bound water molecular resident lifetime τM (typical values) [4]: ~303 ns; relaxivity r1p (typical values) [5]: 4.69 mM⁻¹ s⁻¹; log K (K = formation constant of the metal complex) [6]: 24.6 |
| O=C([O-])CN1CCN(CC(=O)[O-])CCN(CC(=O)N2CCOCCOCCN(Cc3ccc4ccccc4n3)CCOCCOCC2)CCN(CC(=O)[O-])CC1.[Gd+3] [GdL3] |  | 246 | 2.24E−5 | 246 |  | reorientation lifetime τR [3]: 210 ps; q from NMRD profile ([3]; pH 7.5): 1; level of hepatic enhancement maintained for more than 4 h ([7]; 0.1 mmol/kg): about 50%; time for which hepatic intensity enhancement was maintained ([7]; 0.1 mmol/kg): more than 4 h |
| O=C([O-])CN1CCNCCN(CC(=O)[O-])CCN(CC(=O)[O-])CC1.[Gd+3] [Gd-DO3A, reference compound] |  | 160 | 2.24E−5 | 160 | no obvious apoptotic or necrotic cells were found |  |
| O=C([O-])CN1CCN(CC(=O)[O-])CCN(CC(=O)O)CCN(CC(=O)[O-])CC1.[Gd+3] [Gd-DOTA, reference compound] |  | 300 | 2.24E−5 | 245 | no obvious apoptotic or necrotic cells were found | maximal hepatic IE ([7]; 0.02 mmol/kg (1/5 of standard dose)): no remarkable hepatic IE was detected; bound water molecular resident lifetime τM (typical values) [4]: about 244 ns; relaxivity r1p (typical values) [5]: 4.74 mM⁻¹ s⁻¹ |
| O=C([O-])CN1CCN(CCOCC2COCCOCCOCCOCCO2)CCN(CC(=O)[O-])CCN(CC(=O)[O-])CC1.[Gd+3] (stereo not drawn) [GdL2] |  | 116 | 2.24E−5 | 116 |  | overall relaxivity r1p ([3]; 20 MHz, pH 10.0): 4.21 mM⁻¹ s⁻¹; level of hepatic enhancement maintained for more than 4 h ([7]; 0.1 mmol/kg): > 60%; time for which hepatic intensity enhancement was maintained ([7]; 0.1 mmol/kg): more than 4 h |
| O=C([O-])CN1CCN(CCN2CCOCCOCCOCCOCC2)CCN(CC(=O)[O-])CCN(CC(=O)[O-])CC1.[Tb+3] [TbL1] | 0.72 |  |  |  |  | inner-sphere coordinated (bound) water molecules, luminescent measurements [1]: two |
| O=C([O-])CN1CCN(CCN2CCOCCOCCOCCOCC2)CCN(CC(=O)[O-])CCN(CC(=O)[O-])CC1.[Gd+3] [GdL1] |  | 55 | 2.24E−5 | 55 | no obvious apoptotic or necrotic cells were found | renal IE still preserved 250 minutes after injection [9]: 40%; viability of the MIHA cells [10]: not affected obviously; inner-sphere coordinated water molecules from 1H NMRD profiles [3]: two; time after injection of maximal hepatic IE ([7]; 0.03 mmol/kg): 60 to 100 min; hepatic IE on plateau ([7]; 0.033 mmol/kg): > 60%; resident lifetime in hepatic tissue ([7]; 0.1 mmol/kg): > 4 h |
